Some results are limits rather than exact numbers.

Test [1] addresses T1, 5-hydroxytryptamine receptor 1A (Homo sapiens, UniProt P08908).
T1 sequence (P08908 whole entry): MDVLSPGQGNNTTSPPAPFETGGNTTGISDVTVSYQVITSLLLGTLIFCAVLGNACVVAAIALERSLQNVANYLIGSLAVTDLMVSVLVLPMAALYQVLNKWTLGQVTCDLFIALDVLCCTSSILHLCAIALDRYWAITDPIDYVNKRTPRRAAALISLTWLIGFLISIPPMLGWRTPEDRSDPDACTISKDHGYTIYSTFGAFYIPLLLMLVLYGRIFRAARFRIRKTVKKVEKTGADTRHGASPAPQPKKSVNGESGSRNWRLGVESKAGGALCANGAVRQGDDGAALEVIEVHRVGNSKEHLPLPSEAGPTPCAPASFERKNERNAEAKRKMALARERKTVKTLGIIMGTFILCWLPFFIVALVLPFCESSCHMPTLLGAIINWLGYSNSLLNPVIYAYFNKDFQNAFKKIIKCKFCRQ
The test can be described thus: Displacement of [3H]-[…] from human 5-HT1AR expressed in human HEK293 cells. It counts as cell-based.

Test [2] concerns the target T2, D(4) dopamine receptor (Homo sapiens, UniProt P21917).
T2 sequence (P21917 whole entry): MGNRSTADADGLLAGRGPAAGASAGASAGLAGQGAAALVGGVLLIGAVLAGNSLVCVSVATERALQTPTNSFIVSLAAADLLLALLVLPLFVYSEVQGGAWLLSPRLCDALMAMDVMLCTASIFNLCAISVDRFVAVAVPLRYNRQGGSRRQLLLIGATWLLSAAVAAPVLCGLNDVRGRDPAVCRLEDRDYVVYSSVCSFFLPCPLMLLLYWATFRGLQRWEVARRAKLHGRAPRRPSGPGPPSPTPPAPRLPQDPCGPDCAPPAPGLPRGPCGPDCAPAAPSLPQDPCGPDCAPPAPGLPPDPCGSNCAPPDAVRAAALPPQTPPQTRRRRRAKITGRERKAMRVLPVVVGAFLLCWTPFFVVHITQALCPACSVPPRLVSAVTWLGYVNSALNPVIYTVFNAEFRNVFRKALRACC
The test can be described thus: Binding affinity to human D4R.

Test [3] addresses 5-hydroxytryptamine receptor 7 (Homo sapiens, UniProt P34969). The test can be described thus: Displacement of [3H]-5CT from human 5-HT7R expressed in human HEK293 cells. It counts as cell-based. Background: In a radioligand displacement assay an active substance lowers the binding of a labelled ligand.
The target in test [4] is 5-hydroxytryptamine receptor 6 (Homo sapiens, UniProt P50406). The test can be described thus: Displacement of [3H]-LSD from human 5-HT6R expressed in human HEK293 cells. It counts as cell-based.
Test [5] deals with 5-hydroxytryptamine receptor 2A (Homo sapiens, UniProt P28223). The test can be described thus: Displacement of [3H]-ketanserin from human 5-HT2AR expressed in CHO cells. It counts as cell-based.
Test [6] has as its target D(2) dopamine receptor (Homo sapiens, UniProt P14416). The test can be described thus: Displacement of [3H]-raclopride from human D2R expressed in human HEK293 cells. It is filed as cell-based.

5-hydroxytryptamine receptor 7, sequence (P34969 whole entry): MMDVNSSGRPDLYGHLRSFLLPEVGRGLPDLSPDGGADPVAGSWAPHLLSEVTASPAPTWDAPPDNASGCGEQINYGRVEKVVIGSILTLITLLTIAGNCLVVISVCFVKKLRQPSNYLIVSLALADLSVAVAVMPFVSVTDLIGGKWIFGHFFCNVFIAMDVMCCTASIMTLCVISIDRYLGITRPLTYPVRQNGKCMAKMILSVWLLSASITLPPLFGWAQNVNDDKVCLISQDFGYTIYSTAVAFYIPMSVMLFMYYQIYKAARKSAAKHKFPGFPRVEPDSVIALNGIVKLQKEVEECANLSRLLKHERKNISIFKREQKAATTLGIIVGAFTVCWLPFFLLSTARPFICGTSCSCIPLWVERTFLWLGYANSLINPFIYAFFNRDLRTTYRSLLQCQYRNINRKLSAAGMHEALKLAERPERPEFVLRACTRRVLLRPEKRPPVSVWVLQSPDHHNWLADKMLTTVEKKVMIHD
D(2) dopamine receptor, sequence (P14416 whole entry): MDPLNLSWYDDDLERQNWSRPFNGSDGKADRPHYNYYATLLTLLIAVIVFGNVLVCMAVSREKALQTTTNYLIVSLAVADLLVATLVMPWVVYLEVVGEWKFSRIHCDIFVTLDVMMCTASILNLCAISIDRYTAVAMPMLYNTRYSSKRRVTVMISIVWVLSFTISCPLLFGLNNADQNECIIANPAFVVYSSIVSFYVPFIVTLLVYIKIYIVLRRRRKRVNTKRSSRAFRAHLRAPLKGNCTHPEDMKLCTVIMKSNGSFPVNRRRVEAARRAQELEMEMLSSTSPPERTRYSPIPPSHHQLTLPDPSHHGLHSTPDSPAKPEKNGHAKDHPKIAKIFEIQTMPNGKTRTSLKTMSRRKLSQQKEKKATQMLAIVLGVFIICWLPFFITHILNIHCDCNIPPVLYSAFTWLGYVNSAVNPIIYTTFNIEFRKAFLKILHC
5-hydroxytryptamine receptor 2A, sequence (P28223 whole entry): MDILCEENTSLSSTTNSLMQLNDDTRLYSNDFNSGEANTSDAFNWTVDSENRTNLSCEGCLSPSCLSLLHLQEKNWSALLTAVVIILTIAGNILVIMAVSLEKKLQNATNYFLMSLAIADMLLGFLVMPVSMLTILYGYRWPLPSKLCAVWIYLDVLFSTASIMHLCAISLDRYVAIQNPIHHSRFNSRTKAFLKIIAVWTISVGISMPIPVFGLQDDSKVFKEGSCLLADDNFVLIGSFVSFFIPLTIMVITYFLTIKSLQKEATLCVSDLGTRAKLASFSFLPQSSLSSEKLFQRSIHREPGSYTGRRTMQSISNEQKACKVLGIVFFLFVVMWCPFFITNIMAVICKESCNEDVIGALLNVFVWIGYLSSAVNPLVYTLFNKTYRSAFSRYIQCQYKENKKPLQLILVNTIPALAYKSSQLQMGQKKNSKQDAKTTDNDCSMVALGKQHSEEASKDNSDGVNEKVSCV
5-hydroxytryptamine receptor 6, sequence (P50406 whole entry): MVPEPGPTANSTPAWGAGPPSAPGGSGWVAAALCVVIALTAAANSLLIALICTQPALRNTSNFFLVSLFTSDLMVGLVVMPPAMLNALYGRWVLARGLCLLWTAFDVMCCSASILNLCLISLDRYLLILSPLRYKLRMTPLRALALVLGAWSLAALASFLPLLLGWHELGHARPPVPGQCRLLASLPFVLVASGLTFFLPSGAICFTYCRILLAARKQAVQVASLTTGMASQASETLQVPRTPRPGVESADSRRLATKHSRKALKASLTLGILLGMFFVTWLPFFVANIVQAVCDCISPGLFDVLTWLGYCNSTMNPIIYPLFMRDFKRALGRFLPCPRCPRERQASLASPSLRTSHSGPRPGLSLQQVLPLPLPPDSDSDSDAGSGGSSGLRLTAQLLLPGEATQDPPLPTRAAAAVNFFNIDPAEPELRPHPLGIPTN

Usually Ki stands for a dissociation constant, usually derived from enzyme kinetics or from competition with a known ligand. A higher Ki goes with weaker binding. In test [1], `COc1cccc(N2CCN(CCOc3ccccc3C(N)=O)CC2)c1` had a Ki of 155 nM.

`NC(=O)c1ccccc1OCCCN1CCN(c2ccccc2)CC1` gave a Ki in test [1] of 143 nM.

With `O=C1c2ccccc2S(=O)(=O)N1CCCCN1CCN(c2ccc(Cl)cc2)CC1`, the Ki in test [2] was 36 nM.

`COc1ccccc1N1CCN(CCCCN2C(=O)c3ccccc3S2(=O)=O)CC1`: the Ki in test [2] was 79 nM.

In turn, `O=C1c2ccccc2C(=O)N1CCN1CCN(c2ccccc2)CC1` displayed a Ki in test [1] of over 1000 nM.

In the case of `O=C1c2ccccc2C(=O)N1CCCN1CCN(c2ccccc2)CC1`, in test [1], the inhibition constant Ki worked out at 200 nM.

`O=C1c2ccccc2C(=O)N1CCCCCN1CCN(c2ccccc2)CC1` showed a Ki in test [1] of 8.5 nM.

As for `O=C1c2ccccc2S(=O)(=O)N1CCCCN1CCN(c2ccccc2)CC1`, the affinity in test [2] corresponds to a Ki of 136 nM. This counts as sub-micromolar.

With `O=C1c2ccccc2C(=O)N1CCCCN1CCN(c2ccccc2)CC1`, the Ki in test [1] turned out to be 10 nM.

On to `O=C1c2ccccc2S(=O)(=O)N1CCCCCCN1CCN(c2ccc(Cl)cc2)CC1`, for which the Ki in test [3] came out at 487 nM; in test [4], 72 nM; in test [5] it was 299 nM.

Consider `O=C1c2ccccc2S(=O)(=O)N1CCCCCCN1CCN(c2ncccn2)CC1`, for which the inhibition constant (Ki) was 2510 nM in test [3] and 5710 nM in test [4].

Take `COc1ccccc1N1CCN(CCCCCCN2C(=O)c3ccccc3S2(=O)=O)CC1`: the Ki in test [1] worked out at 10 nM; in test [3], 105 nM; in test [4], 779 nM; in test [6], 1 nM; in test [5] it was 764 nM.

As for `O=C1c2ccccc2S(=O)(=O)N1CCCCCCN1CCN(c2cccc(Cl)c2Cl)CC1`, the values for the Ki in test [3], in test [4] and in test [5] were 487 nM, 72 nM and 299 nM, respectively.

Compound `COc1cccc(N2CCN(CCCCCn3c(=O)oc4ccccc4c3=O)CC2)c1` came in with a Ki in test [1] of 20 nM. This lies in the double-digit nanomolar range.

In test [1], `COc1cccc(N2CCN(CCCOc3ccccc3C(N)=O)CC2)c1` showed a Ki of 21 nM.

With `O=C1c2ccccc2C(=O)N1CCCCCCN1CCN(c2ccccc2)CC1`, affinity in test [1] was put at a Ki of 1 nM.

`O=C1c2ccccc2S(=O)(=O)N1CCN1CCN(c2cccc(C(F)(F)F)c2)CC1` returned a Ki in test [1] of over 5000 nM.

On to `O=C1c2ccccc2S(=O)(=O)N1CCCCCN1CCN(c2ccccn2)CC1`, for which the inhibition constant Ki was determined as 13 nM in test [1]; 179 nM in test [3]; 2630 nM in test [4]; 92 nM in test [6]; 1440 nM in test [5].

`COc1cccc(N2CCN(CCCN3C(=O)c4ccccc4C3=O)CC2)c1` registered a Ki in test [1] of 13 nM.

Consider `COc1cccc(N2CCN(CCN3C(=O)c4ccccc4C3=O)CC2)c1`, for which the Ki in test [1] was over 1000 nM.

Compound `COc1cccc(N2CCN(CCCCCOc3ccccc3C(N)=O)CC2)c1` yielded a Ki in test [1] of 4 nM.

For `COc1ccccc1N1CCN(CCCCCN2C(=O)c3ccccc3C2=O)CC1`, the Ki in test [1] was 7.2 nM.

As to `O=C1c2ccccc2S(=O)(=O)N1CCCCN1CCN(c2cccc(Cl)c2Cl)CC1`, the Ki in test [1] came to 1 nM; in test [3], 372 nM; in test [4] it was 2660 nM; in test [6] it was 26 nM; in test [5], 2580 nM.

For the compound `COc1ccccc1N1CCN(CCCCCN2C(=O)c3ccccc3S2(=O)=O)CC1`, the Ki in test [1] was 3 nM; in test [3], 125 nM; in test [4] it was 1990 nM; in test [6], 20 nM; in test [5] it was 584 nM.

In test [1], `COc1ccccc1N1CCN(CCCCCCOc2ccccc2C(N)=O)CC1` had a Ki of 3 nM.

On to `COc1cccc(N2CCN(CCCCOc3ccccc3C(N)=O)CC2)c1`, for which the Ki in test [1] worked out at 38 nM.

As for `O=C1c2ccccc2S(=O)(=O)N1CCCCCN1CCN(c2cccc3ccccc23)CC1`, the Ki in test [1] is 16 nM; in test [3] it was 36 nM; in test [4] it was 101 nM; in test [6] it was 20 nM; in test [5] it was 105 nM.

As for `O=C1c2ccccc2S(=O)(=O)N1CCCCCN1CCN(c2ccc(Cl)cc2)CC1`, the inhibition constant Ki in test [1] turned out to be 101 nM; in test [3] it was 191 nM; in test [4], 703 nM; in test [6], 254 nM; in test [5], 139 nM.

`COc1cccc(N2CCN(CCCCCCn3c(=O)oc4ccccc4c3=O)CC2)c1` displayed an inhibition constant (Ki) in test [1] of 18 nM. This lies in the double-digit nanomolar range.

With `O=C1c2ccccc2S(=O)(=O)N1CCCCCN1CCN(c2cccc(Cl)c2Cl)CC1`, the Ki in test [1] is 29 nM; in test [3], 149 nM; in test [4], 197 nM; in test [6] it was 17 nM; in test [5] it was 126 nM.

`COc1ccccc1N1CCN(CCCCCCN2C(=O)c3ccccc3C2=O)CC1` registered a Ki in test [1] of 22 nM. This counts as double-digit nanomolar.

With `O=C1c2ccccc2S(=O)(=O)N1CCCCCN1CCN(c2ccccc2)CC1`, the Ki is 16 nM in test [1]; 148 nM in test [3]; 1840 nM in test [4]; 165 nM in test [6]; 313 nM in test [5].

Consider `O=C1c2ccccc2S(=O)(=O)N1CCCCCN1CCN(c2ncccn2)CC1`, for which the Ki in test [1] amounted to 6 nM; in test [3] it was 2670 nM; in test [4] it was 7100 nM; in test [6], 954 nM; in test [5], 6310 nM.

With `O=C1c2ccccc2S(=O)(=O)N1CCCCCN1CCN(c2cccc(C(F)(F)F)c2)CC1`, the Ki in test [1] is 21 nM; in test [3] it was 35 nM; in test [4], 1350 nM; in test [6] it was 34 nM; in test [5], 162 nM.

On to `COc1cccc(N2CCN(CCCCn3c(=O)oc4ccccc4c3=O)CC2)c1`, for which, in test [1], the Ki was determined as 3.2 nM.

In turn, `O=c1oc2ccccc2c(=O)n1CCCCN1CCN(c2ccccc2)CC1` came in with an inhibitory constant (Ki) in test [1] of 2.8 nM.

For the compound `COc1ccccc1N1CCN(Cc2ccc(CN3C(=O)c4ccccc4S3(=O)=O)cc2)CC1`, the Ki is 77 nM in test [1]; 97 nM in test [3]; 10100 nM in test [4]; 2 nM in test [6]; 4750 nM in test [5].

As to `COc1cccc(N2CCN(CCCn3c(=O)oc4ccccc4c3=O)CC2)c1`, the Ki in test [1] was 46 nM.

As for `O=c1oc2ccccc2c(=O)n1CCCN1CCN(c2ccccc2)CC1`, the Ki in test [1] came out at 402 nM.

In turn, `O=C1c2ccccc2S(=O)(=O)N1CCCN1CCN(c2ncccn2)CC1` [REVOSPIRONE] gave a Ki in test [1] of 2 nM.

These data come from ChEMBL document CHEMBL4819072, “Radioligand and computational insight in structure - Activity relationship of saccharin derivatives being ipsapirone and revospirone analogues” (Bioorg Med Chem Lett, 2021).
